Assay results as given in patent publication US12509460B2 (Skyhawk Therapeutics, Inc., priority 2019, dated 2025).

What was measured:
[1] = tested on: mHTT protein in GM04724 (CAG 70/20) Huntington's disease patient lymphoblast cells; assay: mHTT protein assay, 2B7-MW1 assay via Mesoscale Discovery (MSD); type: cell-based, human; conditions: GM04724 Huntington's disease patient lymphoblasts
Summary of the method: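 Patient lymphoblasts treated 48 h with compound from 10 μM to 0.6 nM. mHTT quantified by MSD 2B7-MW1 immunoassay, whose signal depends on polyQ expansion and HTT size. Viability measured on a replicate plate by CellTiter Glo.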

[2] = tested on: SMN protein in spinal muscular atrophy (SMA) patient fibroblasts (GM03813, Coriell); assay: SMN protein assay, Mesoscale Discovery (MSD); type: cell-based, human; conditions: SMA patient fibroblasts GM03813, 48 hours, MSD; for EC50: read-out: SMN2 protein EC50
Summary of the method: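 SMA patient fibroblasts (GM03813) seeded at 7000 cells/well and exposed to compound at 2.5 μM to 0.6 nM for 48 hours. Lysates assayed for SMN by MSD immunoassay, with absolute SMN amount calculated from a per-plate SMN standard curve (1 μg/ml to 19.5 pg/ml).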

[3] = tested on: MDR1-MDCK cell monolayers; conditions: dog, MDCK-MDR1, 120 min, 5 μM, pH 7.4
Description: (§1) Example A13: Assessment of Blood-Brain-Barrier (BBB) Penetration Potential Via an MDCK-MDR1 Permeability Assay
(§2) The permeability of compounds is assessed for BBB penetration potential by use of an MDCK-MDR1 assay (Catalog EA203) performed by Absorption Systems, Exton PA.
(§3) Experimental Procedure: MDR1-MDCK cell monolayers are grown to confluence on collagen-coated, microporous membranes in 12-well assay plates. The permeability assay buffer is Hanks' balanced salt solution containing 10 mM HEPES and 15 mM glucose at a pH of 7.4. The buffer in the receiver chamber also contained 1% bovine serum albumin. The dosing solution concentration is 5 μM of test article in the assay buffer. Cell monolayers are dosed on the apical side (A-to-B) or basolateral side (B-to-A) and incubated at 37° C. with 5% CO2 in a humidified incubator. Samples are taken from the donor and receiver chambers at 120 minutes. Each determination is performed in duplicate. The flux of lucifer yellow is also measured post-experimentally for each monolayer to ensure no damage is inflicted to the cell monolayers during the flux period. All samples are assayed by LC-MS/MS using electrospray ionization.
(§4) The apparent permeability (Papp) and percent recovery are calculated as follows:
(§5) Analytical Method: Liquid Chromatography. Column: Waters ACQUITY UPLC BEH Phenyl 30 ×2.1 mm, 1.7 μm; M.P. Buffer. 25 mM ammonium formate buffer, pH 3.5; Aqueous Reservoir (A): 90% water, 10% buffer, Organic Reservoir (B): 90% acetonitrile, 10% buffer, Flow Rate: 0.7 mL/minute; Gradient Program:
(§6) • Total Run Time: 1.00 minute • Autosampler. 2 μL injection volume • Wash1: water/methanol/2-propanol:1/1/1; with 0.2% formic acid • Wash2: 0.1% formic acid in water • Brain Penetration • Potential Classification: A-B Papp≥3.0 and Efflux Ratio <3.0: High • A-B Papp≥3.0 and 10≥Efflux Ratio >3.0: Moderate • A-B Papp≥3.0 and Efflux Ratio≥10: Low • A-B Papp<3.0: Low

[4] = tested on: MDR1 (P-gp); assay: in vitro; conditions: dog, MDCK-MDR1, pH 7.4
Description: as §1, §2, §3, §4, §5, §6

[5] = tested on: MDR1; assay: in vitro; conditions: dog, MDCK-MDR1, pH 7.4
Description: as §1, §2, §3, §4, §5, §6

## CN(C)C(=O)c1cc(O)c(-c2ccc(N(C)[C@@H]3C[C@H]4CC[C@H](N4)[C@@H]3F)nn2)cc1F (single isomer, unassigned) [Compound 53A]
[1]
  mHTT protein EC50: E (501 ≤ E ≤ 10.000)
[2]
  SMN2 protein EC50: E (501 ≤ E ≤ 10.000)
[3]
  MDCK-MDR1: % Recov A-B: 96%
  MDCK-MDR1: % Recov B-A: 114%
[4]
  Papp A→B at 120 min, 5 μM: 0.32 ×10⁻⁶ cm/s
  Papp B→A at 120 min, 5 μM: 41 ×10⁻⁶ cm/s
[5]
  efflux ratio at 120 min, 5 μM: 127

## CN(C)C(=O)c1cc(O)c(-c2ccc(N(C)[C@H]3C[C@@H]4CC[C@@H](N4)[C@H]3F)nn2)cc1F (single isomer, unassigned) [Compound 53B]
[1]
  mHTT protein EC50: E (501 ≤ E ≤ 10.000)
[2]
  SMN2 protein EC50: E (501 ≤ E ≤ 10.000)
[3]
  MDCK-MDR1: % Recov A-B: 100%
  MDCK-MDR1: % Recov B-A: 112%
[4]
  Papp A→B at 120 min, 5 μM: 0.27 ×10⁻⁶ cm/s
  Papp B→A at 120 min, 5 μM: 41.8 ×10⁻⁶ cm/s
[5]
  efflux ratio at 120 min, 5 μM: 153

## O=c1c2cc(O)c(-c3ccc(N(C4CC4)[C@@H]4C[C@H]5CC[C@H](N5)[C@@H]4F)nn3)cc2ncn1CC(F)(F)F (single isomer, unassigned) [Compound 60A]
[1]
  mHTT protein EC50: E (501 ≤ E ≤ 10.000)
[2]
  SMN2 protein EC50: E (501 ≤ E ≤ 10.000)
[3]
  MDCK-MDR1: % Recov A-B: 94%
  MDCK-MDR1: % Recov B-A: 100%
[4]
  Papp A→B at 120 min, 5 μM: 0.44 ×10⁻⁶ cm/s
  Papp B→A at 120 min, 5 μM: 65.9 ×10⁻⁶ cm/s
[5]
  efflux ratio at 120 min, 5 μM: 151

## O=c1c2cc(O)c(-c3ccc(N(C4CC4)[C@H]4C[C@@H]5CC[C@@H](N5)[C@H]4F)nn3)cc2ncn1CC(F)(F)F (single isomer, unassigned) [Compound 60B]
[1]
  EC50: 101 to 500 nM
[2]
  EC50: 101 to 500 nM
[3]
  MDCK-MDR1: % Recov A-B: 88%
  MDCK-MDR1: % Recov B-A: 92%
[4]
  Papp A→B at 120 min, 5 μM: 0.68 ×10⁻⁶ cm/s
  Papp B→A at 120 min, 5 μM: 53 ×10⁻⁶ cm/s
[5]
  efflux ratio at 120 min, 5 μM: 77

## CCc1cn(-c2ccc(-c3ccc(N(C)[C@@H]4C[C@H]5CC(F)(F)[C@@H](C4)N5)nn3)c(O)c2)nn1 (single isomer, unassigned) [Compound 64A]
[1]
  mHTT protein EC50: E (501 ≤ E ≤ 10.000)
[2]
  SMN2 protein EC50: E (501 ≤ E ≤ 10.000)
[3]
  MDCK-MDR1: % Recov A-B: 64%
  MDCK-MDR1: % Recov B-A: 78%
[4]
  Papp A→B at 120 min, 5 μM: 7.18 ×10⁻⁶ cm/s
  Papp B→A at 120 min, 5 μM: 52.2 ×10⁻⁶ cm/s
[5]
  efflux ratio at 120 min, 5 μM: 7

## CCc1cn(-c2ccc(-c3ccc(N(C)[C@H]4C[C@@H]5CC(F)(F)[C@H](C4)N5)nn3)c(O)c2)nn1 (single isomer, unassigned) [Compound 64B]
[1]
  EC50: 101 to 500 nM
[2]
  SMN2 protein EC50: E (501 ≤ E ≤ 10.000)
[3]
  MDCK-MDR1: % Recov A-B: 69%
  MDCK-MDR1: % Recov B-A: 83%
[4]
  Papp A→B at 120 min, 5 μM: 5.61 ×10⁻⁶ cm/s
  Papp B→A at 120 min, 5 μM: 58.6 ×10⁻⁶ cm/s
[5]
  efflux ratio at 120 min, 5 μM: 10

## CN(c1ccc(-c2cc3cc[nH]c(=O)c3s2)nn1)[C@@H]1C[C@H]2CC[C@H](N2)[C@@H]1F (single isomer, unassigned) [Compound 66A]
[1]
  mHTT protein EC50: E (501 ≤ E ≤ 10.000)
[2]
  SMN2 protein EC50: E (501 ≤ E ≤ 10.000)
[3]
  MDCK-MDR1: % Recov A-B: 93%
  MDCK-MDR1: % Recov B-A: 100%
[4]
  Papp A→B at 120 min, 5 μM: 0.09 ×10⁻⁶ cm/s
  Papp B→A at 120 min, 5 μM: 4.4 ×10⁻⁶ cm/s
[5]
  efflux ratio at 120 min, 5 μM: 51

## CN(c1ccc(-c2cc3cc[nH]c(=O)c3s2)nn1)[C@H]1C[C@@H]2CC[C@@H](N2)[C@H]1F (single isomer, unassigned) [Compound 66B]
[1]
  mHTT protein EC50: E (501 ≤ E ≤ 10.000)
[2]
  SMN2 protein EC50: E (501 ≤ E ≤ 10.000)
[3]
  MDCK-MDR1: % Recov A-B: 98%
  MDCK-MDR1: % Recov B-A: 98%
[4]
  Papp A→B at 120 min, 5 μM: 0.07 ×10⁻⁶ cm/s
  Papp B→A at 120 min, 5 μM: 4.64 ×10⁻⁶ cm/s
[5]
  efflux ratio at 120 min, 5 μM: 68

## CN(c1ccc(-c2cc3ccn(C)c(=O)c3s2)nn1)[C@@H]1C[C@H]2CC[C@H](N2)[C@@H]1F (single isomer, unassigned) [Compound 67A]
[1]
  mHTT protein EC50: E (501 ≤ E ≤ 10.000)
[2]
  SMN2 protein EC50: E (501 ≤ E ≤ 10.000)
[3]
  MDCK-MDR1: % Recov A-B: 94%
  MDCK-MDR1: % Recov B-A: 99%
[4]
  Papp A→B at 120 min, 5 μM: 0.42 ×10⁻⁶ cm/s
  Papp B→A at 120 min, 5 μM: 37.9 ×10⁻⁶ cm/s
[5]
  efflux ratio at 120 min, 5 μM: 90

## CN(c1ccc(-c2cc3ccn(C)c(=O)c3s2)nn1)[C@H]1C[C@@H]2CC[C@@H](N2)[C@H]1F (single isomer, unassigned) [Compound 67B]
[1]
  mHTT protein EC50: E (501 ≤ E ≤ 10.000)
[2]
  SMN2 protein EC50: E (501 ≤ E ≤ 10.000)
[3]
  MDCK-MDR1: % Recov A-B: 91%
  MDCK-MDR1: % Recov B-A: 96%
[4]
  Papp A→B at 120 min, 5 μM: 0.47 ×10⁻⁶ cm/s
  Papp B→A at 120 min, 5 μM: 40.9 ×10⁻⁶ cm/s
[5]
  efflux ratio at 120 min, 5 μM: 86

## CN(c1ccc(-c2cc(C#N)ccc2O)nn1)[C@@H]1C[C@H]2CC[C@H](N2)[C@@H]1F (single isomer, unassigned) [Compound 70A]
[1]
  mHTT protein EC50: E (501 ≤ E ≤ 10.000)
[2]
  EC50: 101 to 500 nM
[3]
  MDCK-MDR1: % Recov A-B: 86%
  MDCK-MDR1: % Recov B-A: 89%
[4]
  Papp A→B at 120 min, 5 μM: 3.17 ×10⁻⁶ cm/s
  Papp B→A at 120 min, 5 μM: 60.2 ×10⁻⁶ cm/s
[5]
  efflux ratio at 120 min, 5 μM: 19

## CN(c1ccc(-c2cnc(C#N)cc2O)nn1)[C@@H]1C[C@H]2CC[C@H](N2)[C@@H]1F (single isomer, unassigned) [Compound 71A]
[1]
  mHTT protein EC50: E (501 ≤ E ≤ 10.000)
[2]
  SMN2 protein EC50: E (501 ≤ E ≤ 10.000)
[3]
  MDCK-MDR1: % Recov A-B: 88%
  MDCK-MDR1: % Recov B-A: 92%
[4]
  Papp A→B at 120 min, 5 μM: 3.87 ×10⁻⁶ cm/s
  Papp B→A at 120 min, 5 μM: 26.2 ×10⁻⁶ cm/s
[5]
  efflux ratio at 120 min, 5 μM: 7

## CN(c1ccc(-c2cnc(C#N)cc2O)nn1)[C@H]1C[C@@H]2CC[C@@H](N2)[C@H]1F (single isomer, unassigned) [Compound 71B]
[1]
  mHTT protein EC50: E (501 ≤ E ≤ 10.000)
[2]
  SMN2 protein EC50: E (501 ≤ E ≤ 10.000)
[3]
  MDCK-MDR1: % Recov A-B: 90%
  MDCK-MDR1: % Recov B-A: 89%
[4]
  Papp A→B at 120 min, 5 μM: 5.04 ×10⁻⁶ cm/s
  Papp B→A at 120 min, 5 μM: 20.9 ×10⁻⁶ cm/s
[5]
  efflux ratio at 120 min, 5 μM: 4

## CNC(=O)c1ccc(-c2ccc(N(C)[C@@H]3C[C@H]4CC[C@H](N4)[C@@H]3F)nn2)c(O)c1 (single isomer, unassigned) [Compound 77A]
[1]
  mHTT protein EC50: E (501 ≤ E ≤ 10.000)
[2]
  EC50: 101 to 500 nM
[3]
  MDCK-MDR1: % Recov A-B: 104%
  MDCK-MDR1: % Recov B-A: 110%
[4]
  Papp A→B at 120 min, 5 μM: 0.29 ×10⁻⁶ cm/s
  Papp B→A at 120 min, 5 μM: 36.3 ×10⁻⁶ cm/s
[5]
  efflux ratio at 120 min, 5 μM: 124

## CN(c1ccc(-c2cn3c(=O)ccnc3cc2O)nn1)[C@@H]1C[C@H]2CC[C@H](N2)[C@@H]1F (single isomer, unassigned) [Compound 82A]
[1]
  mHTT protein EC50: E (501 ≤ E ≤ 10.000)
[2]
  EC50: 101 to 500 nM
[3]
  MDCK-MDR1: % Recov A-B: 104%
  MDCK-MDR1: % Recov B-A: 121%
[4]
  Papp A→B at 120 min, 5 μM: 0.08 ×10⁻⁶ cm/s
  Papp B→A at 120 min, 5 μM: 3.33 ×10⁻⁶ cm/s
[5]
  efflux ratio at 120 min, 5 μM: 40

## CN(c1ccc(-c2cn3c(=O)ccnc3cc2O)nn1)[C@H]1C[C@@H]2CC[C@@H](N2)[C@H]1F (single isomer, unassigned) [Compound 82B]
[1]
  mHTT protein EC50: E (501 ≤ E ≤ 10.000)
[2]
  EC50: 101 to 500 nM
[3]
  MDCK-MDR1: % Recov A-B: 72%
  MDCK-MDR1: % Recov B-A: 110%
[4]
  Papp A→B at 120 min, 5 μM: < 0.21 ×10⁻⁶ cm/s
  Papp B→A at 120 min, 5 μM: 3.28 ×10⁻⁶ cm/s
[5]
  efflux ratio at 120 min, 5 μM: > 15

## CN(c1ccc(-c2ccc(Oc3cnn(C)c3)cc2O)nn1)[C@@H]1C[C@H]2CC[C@H](N2)[C@@H]1F (single isomer, unassigned) [Compound 91A]
[1]
  mHTT protein EC50: E (501 ≤ E ≤ 10.000)
[2]
  EC50: 101 to 500 nM
[3]
  MDCK-MDR1: % Recov A-B: 84%
  MDCK-MDR1: % Recov B-A: 82%
[4]
  Papp A→B at 120 min, 5 μM: 4.19 ×10⁻⁶ cm/s
  Papp B→A at 120 min, 5 μM: 62.8 ×10⁻⁶ cm/s
[5]
  efflux ratio at 120 min, 5 μM: 15

## CN(c1ccc(-c2ccc(Oc3cnn(C)c3)cc2O)nn1)[C@H]1C[C@@H]2CC[C@@H](N2)[C@H]1F (single isomer, unassigned) [Compound 91B]
[1]
  mHTT protein EC50: E (501 ≤ E ≤ 10.000)
[2]
  SMN2 protein EC50: E (501 ≤ E ≤ 10.000)
[3]
  MDCK-MDR1: % Recov A-B: 106%
  MDCK-MDR1: % Recov B-A: 102%
[4]
  Papp A→B at 120 min, 5 μM: 3.94 ×10⁻⁶ cm/s
  Papp B→A at 120 min, 5 μM: 73.3 ×10⁻⁶ cm/s
[5]
  efflux ratio at 120 min, 5 μM: 19
